The source made the active and inactive calls. The calls are words filed in the database; no cut-off is given here.
Key:
NCI-H460 [1] = test: Induction of apoptosis in human NCI-H460 cells assessed as early apoptotic cells at 10 uM after 24 hrs by Annexin V/propidium iodide staining-based flow cytometry (reference value: 6.8%); type: functional
NCI-H460 [2] = test: Induction of apoptosis in human NCI-H460 cells assessed as upregulation of CAMK2 mRNA expression after 24 hrs by qRT-PCR analysis; type: functional, cell-based
NCI-H460 [3] = test: Induction of apoptosis in human NCI-H460 cells assessed as increase in intracellular ROS generation at 5 to 20 uM after 24 hrs by DCFH-DA staining-based fluorescence microscopy; type: functional, cell-based
NCI-H460 [4] = test: Cell cycle arrest in human NCI-H460 cells assessed as accumulation at S phase at 20 uM after 48 hrs by Rnase A/propidium iodide staining-based flow cytometry (reference value: 19.41%); type: functional
NCI-H460 [5] = test: Induction of apoptosis in human NCI-H460 cells assessed as change in mitochondrial membrane potential after 24 hrs by JC-1 staining-based fluorescence microscopy relative to control; type: functional, cell-based
NCI-H460 [6] = test: Cell cycle arrest in human NCI-H460 cells assessed as accumulation at G1 phase at 5 uM after 48 hrs by Rnase A/propidium iodide staining-based flow cytometry (reference value: 46.69%); type: functional
NCI-H460 [7] = test: Induction of apoptosis in human NCI-H460 cells assessed as necrotic cells at 8 uM after 12 hrs by Annexin V/propidium iodide staining-based flow cytometry (reference value: 6.9%); type: functional
NCI-H460 [8] = test: Cytotoxicity against human NCI-H460 cells after 48 hrs by MTT assay; type: functional, cell-based; settings: NCI-H460, 48 h
NCI-H460 [9] = test: Cell cycle arrest in human NCI-H460 cells assessed as accumulation at S phase at 8 uM after 12 hrs by Rnase A/propidium iodide staining-based flow cytometry (reference value: 19.41%); type: functional
NCI-H460 [10] = test: Cell cycle arrest in human NCI-H460 cells assessed as accumulation at G1 phase at 20 uM after 48 hrs by Rnase A/propidium iodide staining-based flow cytometry (reference value: 46.69%); type: functional
NCI-H460 [11] = test: Induction of apoptosis in human NCI-H460 cells assessed as late apoptotic cells after 24 hrs by Annexin V/propidium iodide staining-based flow cytometry; type: functional, cell-based
MGC-803 = test: Cytotoxicity against human MGC803 cells after 48 hrs by MTT assay; type: functional, cell-based; settings: MGC-803, 48 h
NCI-H460 [12] = test: Induction of apoptosis in human NCI-H460 cells assessed as viable cells at 5 uM after 24 hrs by Annexin V/propidium iodide staining-based flow cytometry (reference value: 72.2%); type: functional; settings: NCI-H460, 24 h, read-out: Activity
HepG2 = test: cells; settings: Homo sapiens, HepG2, 48 h
Description: Cytotoxicity against human HepG2 cells after 48 hrs by MTT assay

NCI-H460 [13] = test: Cell cycle arrest in human NCI-H460 cells assessed as accumulation at G2 phase at 20 uM after 48 hrs by Rnase A/propidium iodide staining-based flow cytometry (reference value: 33.9%); type: functional
NCI-H460 [14] = test: Induction of apoptosis in human NCI-H460 cells assessed as caspase-4 activation after 24 hrs by qRT-PCR analysis; type: functional, cell-based
NCI-H460 [15] = test: Induction of apoptosis in human NCI-H460 cells assessed as upregulation of cytochrome C mRNA expression after 24 hrs by qRT-PCR analysis; type: functional, cell-based
NCI-H460 [16] = test: Induction of apoptosis in human NCI-H460 cells assessed as viable cells after 24 hrs by Annexin V/propidium iodide staining-based flow cytometry; type: functional, cell-based
NCI-H460 [17] = test: Cell cycle arrest in human NCI-H460 cells assessed as accumulation at G1 phase at 8 uM after 24 hrs by Rnase A/propidium iodide staining-based flow cytometry (reference value: 46.69%); type: functional
A549 = test: cells; settings: Homo sapiens, A549, 48 h
Description: Cytotoxicity against human A549 cells after 48 hrs by MTT assay

NCI-H460 [18] = test: Induction of apoptosis in human NCI-H460 cells assessed as upregulation of AIF mRNA expression after 24 hrs by qRT-PCR analysis; type: functional, cell-based
NCI-H460 [19] = test: Induction of apoptosis in human NCI-H460 cells assessed as early apoptotic cells at 20 uM after 24 hrs by Annexin V/propidium iodide staining-based flow cytometry (reference value: 6.8%); type: functional
CNE = test: Cytotoxicity against human CNE cells after 48 hrs by MTT assay; type: functional, cell-based
NCI-H460 [20] = test: Induction of apoptosis in human NCI-H460 cells assessed as necrotic cells at 20 uM after 24 hrs by Annexin V/propidium iodide staining-based flow cytometry (reference value: 6.9%); type: functional
NCI-H460 [21] = test: Induction of apoptosis in human NCI-H460 cells assessed as necrotic cells at 8 uM after 24 hrs by Annexin V/propidium iodide staining-based flow cytometry (reference value: 6.9%); type: functional
NCI-H460 [22] = test: Induction of apoptosis in human NCI-H460 cells assessed as necrotic cells after 24 hrs by Annexin V/propidium iodide staining-based flow cytometry; type: functional, cell-based
NCI-H460 [23] = test: Induction of apoptosis in human NCI-H460 cells assessed as increase in intracellular calcium release at 5 to 20 uM after 24 hrs by Fluo-3/AM staining-based fluorescence microscopy; type: functional, cell-based
NCI-H460 [24] = test: Induction of apoptosis in human NCI-H460 cells assessed as late apoptotic cells at 8 uM after 48 hrs by Annexin V/propidium iodide staining-based flow cytometry (reference value: 14.1%); type: functional
NCI-H460 [25] = test: Induction of apoptosis in human NCI-H460 cells assessed as caspase-9 activation after 24 hrs by qRT-PCR analysis; type: functional, cell-based
NCI-H460 [26] = test: Cell cycle arrest in human NCI-H460 cells assessed as accumulation at G2 phase at 5 uM after 48 hrs by Rnase A/propidium iodide staining-based flow cytometry (reference value: 33.9%); type: functional
NCI-H460 [27] = test: Induction of apoptosis in human NCI-H460 cells assessed as late apoptotic cells at 10 uM after 24 hrs by Annexin V/propidium iodide staining-based flow cytometry (reference value: 14.1%); type: functional
NCI-H460 [28] = test: Cell cycle arrest in human NCI-H460 cells assessed as accumulation at S phase at 5 uM after 48 hrs by Rnase A/propidium iodide staining-based flow cytometry (reference value: 19.41%); type: functional
NCI-H460 [29] = test: Induction of apoptosis in human NCI-H460 cells assessed as downregulation of Bcl-2 mRNA expression after 24 hrs by qRT-PCR analysis; type: functional, cell-based
NCI-H460 [30] = test: Induction of apoptosis in human NCI-H460 cells assessed as viable cells at 8 uM after 24 hrs by Annexin V/propidium iodide staining-based flow cytometry (reference value: 72.2%); type: functional; settings: NCI-H460, 24 h, read-out: Activity
NCI-H460 [31] = test: Cell cycle arrest in human NCI-H460 cells assessed as accumulation at G2 phase at 8 uM after 48 hrs by Rnase A/propidium iodide staining-based flow cytometry (reference value: 33.9%); type: functional
NCI-H460 [32] = test: Cell cycle arrest in human NCI-H460 cells assessed as accumulation at G2 phase at 8 uM after 24 hrs by Rnase A/propidium iodide staining-based flow cytometry (reference value: 33.9%); type: functional
NCI-H460 [33] = test: Induction of apoptosis in human NCI-H460 cells assessed as late apoptotic cells at 20 uM after 24 hrs by Annexin V/propidium iodide staining-based flow cytometry (reference value: 14.1%); type: functional

| IC50 (HepG2) | IC50 (A549) | Compound | Activity (NCI-H460 [1]) | Activity (NCI-H460 [2]) | Activity (NCI-H460 [3]) | Activity (NCI-H460 [4]) | Activity (NCI-H460 [5]) | Activity (NCI-H460 [6]) | Activity (NCI-H460 [7]) | IC50 (NCI-H460 [8]) | Activity (NCI-H460 [9]) | Activity (NCI-H460 [10]) | Activity (NCI-H460 [11]) | IC50 (MGC-803) | viability at 5 µM (NCI-H460 [12]) | Activity (NCI-H460 [13]) | Activity (NCI-H460 [14]) | Activity (NCI-H460 [15]) | Activity (NCI-H460 [16]) | Activity (NCI-H460 [17]) | other results |
| --- | --- | --- | --- | --- | --- | --- | --- | --- | --- | --- | --- | --- | --- | --- | --- | --- | --- | --- | --- | --- | --- |
| 40.5 µM | 15.9 µM | CCOP(=O)(OCC)C(NC(=O)C(C)Oc1ccc2c(c1O)C(=O)c1ccccc1C2=O)c1cccc2ccccc12 (stereo unspecified) | 35.7% | Dose-dependent effect | Active | 17.06% | Dose-dependent effect | 57.2% | 0.9% | 6.83 µM | 0.11% | 61.6% | Dose-dependent effect | 3.77 µM | 71.4% | 21.34% | Dose-dependent effect | Dose-dependent effect | Dose-dependent effect | 66.33% | Activity (NCI-H460 [18]): Dose-dependent effect; Activity (NCI-H460 [19]): 38.8%; IC50 (CNE): > 50 µM; Activity (NCI-H460 [20]): 1.4%; Activity (NCI-H460 [21]): 2.4%; Activity (NCI-H460 [22]): Dose-dependent effect; Activity (NCI-H460 [23]): Active; Activity (NCI-H460 [24]): 14.8%; Activity (NCI-H460 [25]): Dose-dependent effect; Activity (NCI-H460 [26]): 25.78%; Activity (NCI-H460 [27]): 18.6%; Activity (NCI-H460 [28]): 17.02%; Activity (NCI-H460 [29]): Dose-dependent effect; viability at 8 µM (NCI-H460 [30]): 47.5%; Activity (NCI-H460 [31]): 31.5%; Activity (NCI-H460 [32]): 32.56%; Activity (NCI-H460 [33]): 16.4% |
| 88.2 µM | 12.3 µM | CCOP(=O)(OCC)C(NC(=O)C(C)Oc1ccc2c(c1O)C(=O)c1ccccc1C2=O)c1ccccc1OC (stereo unspecified) | 32.4% | Dose-dependent effect | Active | 11.81% | Dose-dependent effect | 56.85% | 0.7% | 9.8 µM | 15.62% | 65.1% | Dose-dependent effect | 10.1 µM | 62.1% | 23.09% | Dose-dependent effect | Dose-dependent effect | Dose-dependent effect | 64.92% | Activity (NCI-H460 [18]): Dose-dependent effect; Activity (NCI-H460 [19]): 34.7%; IC50 (CNE): 34.2 µM; Activity (NCI-H460 [20]): 12.9%; Activity (NCI-H460 [21]): 2.5%; Activity (NCI-H460 [22]): Dose-dependent effect; Activity (NCI-H460 [23]): Active; Activity (NCI-H460 [24]): 18.2%; Activity (NCI-H460 [25]): Dose-dependent effect; Activity (NCI-H460 [26]): 34.41%; Activity (NCI-H460 [27]): 17.8%; Activity (NCI-H460 [28]): 8.74%; Activity (NCI-H460 [29]): Dose-dependent effect; viability at 8 µM (NCI-H460 [30]): 47.5%; Activity (NCI-H460 [31]): 22.97%; Activity (NCI-H460 [32]): 21.99%; Activity (NCI-H460 [33]): 30.7% |
| 21 µM | 6.76 µM | CCOP(=O)(OCC)C(NC(=O)C(C)Oc1ccc2c(c1O)C(=O)c1ccccc1C2=O)c1ccccc1F (stereo unspecified) | 56.3% | Dose-dependent effect | Active | 11.25% | Dose-dependent effect | 64.52% | 0.5% | 3.8 µM | 14.65% | 68.89% | Dose-dependent effect | 18.8 µM | 61.6% | 20.06% | Dose-dependent effect | Dose-dependent effect | Dose-dependent effect | 60.05% | Activity (NCI-H460 [18]): Dose-dependent effect; Activity (NCI-H460 [19]): 55.1%; IC50 (CNE): 30.2 µM; Activity (NCI-H460 [20]): 1.4%; Activity (NCI-H460 [21]): 1.9%; Activity (NCI-H460 [22]): Dose-dependent effect; Activity (NCI-H460 [23]): Active; Activity (NCI-H460 [24]): 9.3%; Activity (NCI-H460 [25]): Dose-dependent effect; Activity (NCI-H460 [26]): 23.14%; Activity (NCI-H460 [27]): 6.8%; Activity (NCI-H460 [28]): 12.34%; Activity (NCI-H460 [29]): Dose-dependent effect; viability at 8 µM (NCI-H460 [30]): 46.3%; Activity (NCI-H460 [31]): 23.61%; Activity (NCI-H460 [32]): 23.05%; Activity (NCI-H460 [33]): 9.8% |
